Usually pKd stands for the negative decadic logarithm of the Kd, by convention in mol/L.

Our source for the Kd values is patent publication US20250011368A1, “DLL3 TARGETING PEPTIDES AND CONSTRUCTS THEREOF” (MARIANA ONCOLOGY INC., priority 2023, published 2025).

Each structure is given as a SMILES string. pKd: −log10 of the molar value. Numbered stars: 1 amine (or outer) side, 2 acyl side, 3 side chain; on linkers, the order of the positions; unused ones are H or OH. Bridge positions count the residues as written; N and C are the ends. Square brackets hold non-standard residues; d marks the D form. Side chains are listed from the residue outwards. Peptide text beside a SMILES is read from it. * marks the point of attachment. ξ: configuration not given here. X9 = O=C(O)CN1CCN(CC(=O)O)CCN(CC(=O)NCCCOCCOCCOCCCN*)CCN(CC(=O)O)CC1; DOTA = O=C(O)CN1CCN(CC(=O)O)CCN(CC(=O)*)CCN(CC(=O)O)CC1; Phe(4-CF3) = N[C@@H](Cc1ccc(C(F)(F)F)cc1)C(=O)O; Trp(5-F) = N[C@@H](Cc1c[nH]c2ccc(F)cc12)C(=O)O; Trp(7-aza) = N[C@@H](Cc1c[nH]c2ncccc12)C(=O)O; Pro(trans-4-F) = O=C(O)[C@@H]1C[C@@H](F)CN1; PEG8 = NCCOCCOCCOCCOCCOCCOCCOCCOCCC(=O)O; 2Nal = N[C@@H](Cc1ccc2ccccc2c1)C(=O)O; Nva(3-Et) = CCC(CC)[C@H](N)C(=O)O; ξW = NC(Cc1c[nH]c2ccccc12)C(=O)O; 3Pal = N[C@@H](Cc1cccnc1)C(=O)O; Thr(3ξ) = CC(O)[C@H](N)C(=O)O; Chg = N[C@H](C(=O)O)C1CCCCC1; PEG4 = NCCOCCOCCOCCOCCC(=O)O; Suc = O=C(CCC(=O)[*:2])[*:1]; Tle = CC(C)(C)[C@H](N)C(=O)O

This test deals with T1, human DLL3 (Homo sapiens, UniProt Q9NYJ7).
T1 sequence (Q9NYJ7 27-618): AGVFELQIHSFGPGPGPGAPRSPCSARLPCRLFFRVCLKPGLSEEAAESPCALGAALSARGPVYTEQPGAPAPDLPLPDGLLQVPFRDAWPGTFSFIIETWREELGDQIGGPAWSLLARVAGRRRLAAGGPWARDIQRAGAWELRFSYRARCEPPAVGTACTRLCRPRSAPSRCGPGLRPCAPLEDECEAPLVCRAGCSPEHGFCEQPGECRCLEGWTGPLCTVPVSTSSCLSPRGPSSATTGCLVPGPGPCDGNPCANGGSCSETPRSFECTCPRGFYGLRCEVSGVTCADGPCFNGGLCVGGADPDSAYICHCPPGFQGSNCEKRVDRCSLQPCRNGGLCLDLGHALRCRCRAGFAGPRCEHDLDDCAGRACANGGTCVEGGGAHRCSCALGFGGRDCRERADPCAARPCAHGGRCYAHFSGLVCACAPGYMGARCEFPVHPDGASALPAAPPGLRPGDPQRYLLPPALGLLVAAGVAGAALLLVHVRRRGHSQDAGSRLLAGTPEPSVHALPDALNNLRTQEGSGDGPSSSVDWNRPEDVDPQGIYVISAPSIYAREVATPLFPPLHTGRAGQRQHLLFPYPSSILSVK
The experiment in a line: Affinity determination by Surface Plasmon Resonance (SPR). The conditions noted are these: 25° C., biotinylated human DLL3 immobilized on streptavidin sensor chip, 1:1 binding model; read-out: SPR KD. The format is binding. As to the method:
SPR studies were performed on the compounds disclosed herein using the following protocol.
Biotinylated target ligand human DLL3 was immobilized on a streptavidin sensor chip. A reference surface was set up for nonspecific binding and refractive index changes. For analysis of the kinetics of interactions, varying concentrations of samples were injected at a flow rate of 100 μL/minute using running buffer containing 20 mM phosphate buffer with 2.7 mM KCl, 137 mM NaCl, 0.05% Surfactant P20 and 2% DMSO. Sensorgram curves were fitted with 1:1 binding model, and affinity and kinetic parameters were obtained using Biacore Insight evaluation 4.0. software.
`CCC(CC)[C@H](NC(=O)[C@@H](NC(=O)[C@H](Cc1c[nH]c2ccccc12)NC(C)=O)[C@@H](C)O)C(=O)N[C@H]1CSSC[C@@H](C(=O)N[C@@H](Cc2c[nH]c3ncccc23)C(=O)N2CCC[C@H]2C(=O)N[C@H](CCCCNC(=O)CCC(=O)NCCCOCCOCCOCCCNC(=O)CN2CCN(CC(=O)O)CCN(CC(=O)O)CCN(CC(=O)O)CC2)C(N)=O)NC(=O)[C@H](CC(=O)O)NC(=O)[C@H](Cc2c[nH]cn2)NC(=O)[C@H](Cc2ccc3ccccc3c2)NC(=O)[C@H](CC(N)=O)NC(=O)[C@H](CC(N)=O)NC1=O` [compound 204, Ac-W-T-(Env)-C(3)-N-N-(2Nal)-H-D-C(3)-(7-Aza-W)-P-[D-Lys(G-G-TTDS-DOTA)]-NH2] (Ac-WT[Nva(3-Et)]CNN[2Nal]HDC[Trp(7-aza)]P[dK]([Suc-X9])-NH2; disulfide 4-10): the pKd is over 9.00.

For `CC[C@H](C)[C@H](NC(=O)[C@@H](NC(=O)[C@H](Cc1c[nH]c2ccccc12)NC(C)=O)[C@@H](C)O)C(=O)N[C@H]1CSSC[C@@H](C(=O)N[C@@H](Cc2c[nH]c3ccccc23)C(=O)N2CCC[C@H]2C(=O)N[C@H](CCCCNC(=O)[C@H]2CCCN2C(=O)[C@H]2CCCN2C(=O)[C@H]2CCCN2C(=O)CCOCCOCCOCCOCCOCCOCCOCCOCCNC(=O)CN2CCN(CC(=O)O)CCN(CC(=O)O)CCN(CC(=O)O)CC2)C(N)=O)NC(=O)[C@H](CC(=O)O)NC(=O)[C@H](Cc2c[nH]cn2)NC(=O)[C@H](Cc2ccc3ccccc3c2)NC(=O)[C@H](CC(N)=O)NC(=O)[C@H](CC(N)=O)NC1=O` [compound 358, Ac-W-T-I-C(3)-N-N-(2Nal)-H-D-C(3)-W-P-[D-Lys((D-Pro)3-PEG8-DOTA)]-NH2] (Ac-WTICNN[2Nal]HDCWP[dK]([dP-dP-dP-PEG8-DOTA])-NH2; disulfide 4-10), the pKd was over 9.00.

As to `CC[C@H](C)[C@H](NC(=O)[C@@H](NC(=O)[C@H](Cc1c[nH]c2ccccc12)NC(C)=O)[C@@H](C)O)C(=O)N[C@H]1CSSC[C@@H](C(=O)N[C@@H](Cc2c[nH]c3ccccc23)C(=O)N2CCC[C@H]2C(=O)N[C@H](CCCCNC(=O)CN2CCN(CC(=O)O)CCN(CC(=O)O)CCN(CC(=O)O)CC2)C(N)=O)NC(=O)[C@H](CC(=O)O)NC(=O)[C@H](CCC(=O)O)NC(=O)[C@H](Cc2c[nH]c3ccccc23)NC(=O)[C@H](CC(N)=O)NC(=O)[C@H](CC(N)=O)NC1=O` [compound 274, Ac-W-T-I-C(3)-N-N-W-Glu-D-C(3)-W-P-[D-Lys(DOTA)]-NH2] (Ac-WTICNNWEDCWP[dK](DOTA)-NH2; disulfide 4-10), the pKd was 8.00 to 9.00.

Consider `CC(=O)N[C@@H](Cc1c[nH]c2ccccc12)C(=O)N[C@H](C(=O)N[C@H](C(=O)N[C@H]1CSSC[C@@H](C(=O)N[C@@H](Cc2c[nH]c3ccccc23)C(=O)N2CCC[C@H]2C(=O)N[C@H](CCCCNC(=O)CN2CCN(CC(=O)O)CCN(CC(=O)O)CCN(CC(=O)O)CC2)C(N)=O)NC(=O)[C@H](CC(=O)O)NC(=O)[C@H](Cc2cnc[nH]2)NC(=O)[C@H](Cc2ccc3ccccc3c2)NC(=O)[C@H](CC(N)=O)NC(=O)[C@H](Cc2cccnc2)NC1=O)C(C)(C)C)[C@@H](C)O` [compound 288, Ac-W-T-(Tbg)-C(3)-(3Pya)-N-(2Nal)-H-D-C(3)-W-P-[D-Lys(DOTA)]-NH2] (Ac-WT[Tle]C[3Pal]N[2Nal]HDCWP[dK](DOTA)-NH2; disulfide 4-10), for which the pKd is over 9.00.

Consider `CC[C@H](C)[C@H](NC(=O)[C@@H](NC(=O)C(Cc1c[nH]c2ccccc12)NC(C)=O)C(C)O)C(=O)N[C@H]1CSSC[C@@H](C(=O)N[C@@H](Cc2c[nH]c3ccccc23)C(=O)N2CCC[C@H]2C(=O)N[C@H](CCCCNC(=O)CCOCCOCCOCCOCCNC(=O)CN2CCN(CC(=O)O)CCN(CC(=O)O)CCN(CC(=O)O)CC2)C(N)=O)NC(=O)[C@H](CC(=O)O)NC(=O)[C@H](Cc2cnc[nH]2)NC(=O)[C@H](Cc2ccc3ccccc3c2)NC(=O)[C@H](CC(N)=O)NC(=O)[C@H](CC(N)=O)NC1=O` (stereo partly drawn) [compound 271, Ac-W-T-I-C(3)-N-N-(2Nal)-H-D-C(3)-W-P-[D-Lys(PEG4-DOTA)]-NH2] (Ac-[ξW][Thr(3ξ)]ICNN[2Nal]HDCWP[dK]([PEG4-DOTA])-NH2; disulfide 4-10), for which the pKd is over 9.00.

Take `CC(=O)N[C@@H](Cc1c[nH]c2ccc(F)cc12)C(=O)N[C@H](C(=O)N[C@H](C(=O)N[C@H]1CSSC[C@@H](C(=O)N[C@@H](Cc2c[nH]c3ncccc23)C(=O)N2C[C@H](F)C[C@H]2C(=O)N[C@H](CCCCNC(=O)CN2CCN(CC(=O)O)CCN(CC(=O)O)CCN(CC(=O)O)CC2)C(N)=O)NC(=O)[C@H](CC(=O)O)NC(=O)[C@H](Cc2cnc[nH]2)NC(=O)[C@H](Cc2ccc(C(F)(F)F)cc2)NC(=O)[C@H](CC(N)=O)NC(=O)[C@H](CC(N)=O)NC1=O)C1CCCCC1)[C@@H](C)O` [compound 151, Ac-(5Fluoro-W)-T-(Chg)-C(3)-N-N-(4CF3-F)-H-D-C(3)-(7Aza-W)-(trans4Fluoro-P)-[D-Lys(DOTA)]-NH2] (Ac-[Trp(5-F)]T[Chg]CNN[Phe(4-CF3)]HDC[Trp(7-aza)][Pro(trans-4-F)][dK](DOTA)-NH2; disulfide 4-10): the pKd is 8.00 to 9.00.
